Earlier results, collected in patent US9532987B2, “Use of a combination of a MEK inhibitor and an ERK inhibitor for treatment of hyperproliferative diseases” (Genentech, Inc., priority 2013, dated 2017).

Tests used:
[1] = system: tumor cells bearing activating B-RAF mutations
[2] = system: tumor cells bearing activating Ras mutations

Row | SMILES | inhibition of tumor cell growth [1] | inhibition of tumor cell growth [2]
1 | O=C(NOCCO)c1ccc2cncn2c1Nc1ccc(I)cc1F [GDC-0623, 5-[(2-fluoro-4-iodophenyl)amino]-N-(2-hydroxyethoxy)-imidazo[1,5-a]pyridine-6-carboxamide] | effective | more activity
2 | O=C(c1ccc(F)c(F)c1Nc1ccc(I)cc1F)N1CC(O)([C@@H]2CCCCN2)C1 [GDC-0973, [3,4-difluoro-2-[(2-fluoro-4-iodophenyl)amino]phenyl][3-hydroxy-3-[(2S)-2-piperidinyl]-1-azetidinyl]methanone] | more activity | effective
